# Laboratory results taken from patent US20260226043A1, “POLYMORPHS OF THE MALEIC ACID SALT OF LINAPRAZAN GLURATE” (Cinclus Pharma Holding AB (publ), priority 2023, published 2026).
# “Also recorded” adds a separate entry of the source. Read-outs that look alike come from different tables or passages of the source. Marks after values point to notes of the source that are not given here.
# How the values were obtained:
# [1] = Thermogravimetric analysis (TGA)
# Procedure: Analyses were performed on a PerkinElmer TGA7 instrument. A few mg of sample was gently charged into open Pt-pans and analysed by weight in a flow of dry nitrogen gas (20 mL/min), to ensure an inert atmosphere. The sample was scanned from 25 to 200° C. using a continuous scan speed of 10° C./min. The weight loss was calculated from 25° C. up to 145° C.
# [2] = Slurry experiments (solid form stability, XRPD); type: physicochemical
# Procedure: Slurry experiments were performed in various solvents. The samples were slurried for different periods of time depending on temperature. […] The water-containing slurries were performed to investigate possible hydrate formation.
# Details of all slurry experiments performed, including solvent(s) used, total concentration and final form by XRPD, are given in Table 1.
# Approximately 30 mg of linaprazan glurate maleic acid salt was used for each experiment, together with 20 different solvents (pure and binary solvents) at room temperature, at 4° C., at 40° C., and at 60° C., unless indicated otherwise. […] The solid phase was isolated and analysed with XRPD. The sample run at fridge temperature (ca 4° C.) was analysed after 26 and 53 days of slurry. The samples run at RT were analysed after 26 days of slurry. The samples run at 40° C. were analysed after 6 and 12 days of slurry. The samples run at 60° C. were analysed after 1 day of slurry.
# [3] = Gravimetric/dynamic vapour sorption (GVS/DVS)
# Procedure: Analyses were performed on an SMS DVS-1 instrument. A few mg of the substance was added into an Al pan and exposed to stepwise RH changes during two consecutive cycles according to 20-80-0-90-0%, in steps of 10% RH, using open loop mode. The experiments were performed using a gas flow rate of 200 mL/min and at 25° C. The dm/dt criteria applied was 0.001 weight-%/min during a 5-minute window, with a maximum allowed time of 360 minutes and a minimum allowed time of 10 minutes for all steps.
# The hygroscopicity of Form 1 (obtained from the synthesis described below in example 1) was investigated using GVS at 25° C.
# [4] = free base Form A; cited from earlier work
# [5] = cited from earlier work
# intragastric acidity = conditions: cited from earlier work
# [6] = cited from earlier work; remark: listed apart in the source
# [7] = Phase I and II studies; cited from earlier work
# gastric acid = conditions: Phase I and II studies; cited from earlier work
# clinical = conditions: human, in vivo
# Procedure: Linaprazan glurate is a prodrug of linaprazan, which was disclosed in WO 99/55706 and previously studied in Phase I and II studies. […] A clinical Phase I study has shown that administration of a single dose of linaprazan glurate can maintain the intragastric acidity above pH 4 for 24 hours. Linaprazan glurate is therefore tailored for patients with severe erosive gastroesophageal reflux disease (eGERD).
# It is estimated that this requires a minimal plasma concentration (Cmin) of linaprazan of at least about 240 nmol/L after 22 hours. At such doses, a once daily oral administration of the formulation would be sufficient. In some embodiments, therefore, a single unit dose of a pharmaceutical composition of linaprazan glurate provides a Cmin of linaprazan in a human of at least about 240 nmol/L after 22 hours following oral administration of the pharmaceutical composition to said human. In other embodiments, a daily administration of two unit doses of a pharmaceutical composition of linaprazan glurate provides a Cmin of linaprazan in a human of at least about 240 nmol/L after 10 hours following oral administration of the last unit dose of the pharmaceutical composition to said human.
smiles,measurement,setting,value
"Cc1cccc(C)c1CNc1cc(C(=O)NCCOC(=O)CCCC(=O)O)cn2c(C)c(C)nc12.O=C(O)/C=C\C(=O)O [Form 1, maleic acid salt of 5-{2-[({8-[(2,6-dimethylbenzyl)amino]-2,3-dimethylimidazo[1,2-a]pyridine-6-yl}carbonyl)-amino]ethoxy}-5-oxopentanoic acid]",weight loss (TGA),[1],0.17%
same,Solid state form,"[2]; slurry in 1,4-dioxane, 63 mg/mL, 40° C., 6 and 12 days",Form 1
same,Solid state form,"[2]; slurry in 1,4-dioxane:DMA 9:1, 103 mg/mL, RT, 26 days",Form 1
same,Solid state form,"[2]; slurry in 2-propanol, 56 mg/mL, 40° C., 6 and 12 days",Form 1 + Crystalline
same,Solid state form,"[2]; slurry in 2-propanol:DMA 9:1, 91 mg/mL, RT, 26 days",Form 1
same,Solid state form,"[2]; slurry in DMA, 890 mg/mL, RT, 26 days",Crystalline base form
same,Solid state form,"[2]; slurry in DMA, 1369 mg/mL, 40° C., 6 and 12 days",Form 1 + Crystalline
same,Solid state form,"[2]; slurry in EtOAc, 36 mg/mL, 40° C., 6 and 12 days",Form 1
same,Solid state form,"[2]; slurry in EtOAc:DMA 9:1, 89 mg/mL, RT, 26 days",Form 1 + Crystalline
same,Solid state form,"[2]; slurry in EtOH, 61 mg/mL, 40° C., 6 and 12 days",Form 1 + Crystalline
same,Solid state form,"[2]; slurry in EtOH, 61 mg/mL, RT, 26 days",Form 1
same,Solid state form,"[2]; slurry in MIBK, 53 mg/mL, 40° C., 6 and 12 days",Form 1
same,Solid state form,"[2]; slurry in MIBK, 62 mg/mL, 60° C., 1 day",Form 1
same,Solid state form,"[2]; slurry in MIBK:DMA 9:1, 84 mg/mL, RT, 26 days",Form 1
same,Solid state form,"[2]; slurry in MTBE, 68 mg/mL, 40° C., 6 and 12 days",Form 1 + MTBE solvate
same,Solid state form,"[2]; slurry in MTBE:DMA 9:1, 99 mg/mL, RT, 26 days, analysed also after 53 days",Form 1 + MTBE solvate*
same,Solid state form,"[2]; slurry in MeCN, 52 mg/mL, 40° C., 6 and 12 days",Form 1
same,Solid state form,"[2]; slurry in MeCN, 63 mg/mL, 60° C., 1 day",Form 1
same,Solid state form,"[2]; slurry in MeCN:DMA 9:1, 85 mg/mL, RT, 26 days",Form 1 + Crystalline
same,Solid state form,"[2]; slurry in MeOH, 51 mg/mL, 40° C., 6 and 12 days",Crystalline base form
same,Solid state form,"[2]; slurry in MeOH, 55 mg/mL, RT, 26 days",Form 1 + Crystalline
same,Solid state form,"[2]; slurry in MeOH:water 4:1, 52 mg/mL, ca 4° C., 26 and 53 days",Form 1 + Crystalline
same,Solid state form,"[2]; slurry in MeOH:water 4:1, 58 mg/mL, RT, 26 days",Crystalline base form
same,Solid state form,"[2]; slurry in THF, 53 mg/mL, 40° C., 6 and 12 days",Form 1 + Crystalline
same,Solid state form,"[2]; slurry in THF, 63 mg/mL, 60° C., 1 day",Form 1
same,Solid state form,"[2]; slurry in THF:DMA 9:1, 93 mg/mL, RT, 26 days",Form 1 + Crystalline
same,Solid state form,"[2]; slurry in acetone, 29 mg/mL, RT, analysed after 21 days",Form 1**
same,Solid state form,"[2]; slurry in benzyl alcohol, 332 mg/mL, RT, analysed after 21 days",Form 1**
same,hygroscopicity classification,[3]; GVS/DVS at 25° C.,slightly hygroscopic; also recorded: low hygroscopicity
same,water uptake,"[3]; at 80% RH, dynamic vapour sorption",about 0.45%
same,uptake of water,"[3]; humidity range 0 to 80% RH, GVS at 25° C.",~0.4%
Cc1cccc(C)c1CNc1cc(C(=O)NCCOC(=O)CCCC(=O)O)cn2c(C)c(C)nc12 [Form A],hygroscopicity,[4],very low hygroscopicity
same,physical and chemical stability,[4],good physical and chemical stability
same,solubility in water,[5]; pH 1,only slightly soluble
same,solubility in water,[5]; pH 6.8,practically insoluble
"Cc1cccc(C)c1CNc1cc(C(=O)NCCOC(=O)CCCC(=O)O)cn2c(C)c(C)nc12 [linaprazan glurate, 5-{2-[({8-[(2,6-dimethylbenzyl)amino]-2,3-dimethylimidazo[1,2-a]pyridine-6-yl}carbonyl)-amino]ethoxy}-5-oxopentanoic acid]",control of the gastric acid production,intragastric acidity; compared to linaprazan,total control of the gastric acid production for a longer time
same,intragastric acidity (pH) maintained,"intragastric acidity; single dose, maintained for 24 hours, clinical Phase I study",> 4
same,plasma concentration of linaprazan glurate,[6]; after administration of linaprazan glurate,only very low and difficult to determine
same,half-life in the body,[6]; compared to linaprazan,longer half-life in the body
same,metabolism,[6]; following absorption into the blood stream,quickly metabolized into linaprazan
Cc1cccc(C)c1CNc1cc(C(=O)NCCO)cn2c(C)c(C)nc12 [linaprazan],elimination from the body,[7],quickly eliminated from the body
same,tolerability,[7],well tolerated
same,duration of acid inhibition,gastric acid,too short duration of acid inhibition
same,onset of action / effect,gastric acid,fast onset of action and full effect at first dose
same,concentration at 22 h,clinical,≥ 240 nM
